In article PMC10388204, “Different conformational dynamics of SNARE protein Ykt6 among yeast and mammals” (The Journal of Biological Chemistry, 2023):
Residue numbers refer to the chain shown, from its start.

Assays:
Test in all cases: isothermal titration calorimetry
Type in all cases: binding
yYkt6ΔC [1] = target: T1, yYkt6ΔC (Saccharomyces cerevisiae, UniProt P36015, T46L/Q57A/L169A); conditions: 50 mM Tris pH 8.0, 100 mM NaCl, 1 mM EDTA, 1 mM β-mercaptoethanol, 25 °C
T1 construct: gene YKT6; residues 1-195, C-terminal CCIIM motif removed; His6 tag; pET-M3C; E. coli BL21(DE3); not lipidated
T1 sequence (P36015 1-195 T46L/Q57A/L169A): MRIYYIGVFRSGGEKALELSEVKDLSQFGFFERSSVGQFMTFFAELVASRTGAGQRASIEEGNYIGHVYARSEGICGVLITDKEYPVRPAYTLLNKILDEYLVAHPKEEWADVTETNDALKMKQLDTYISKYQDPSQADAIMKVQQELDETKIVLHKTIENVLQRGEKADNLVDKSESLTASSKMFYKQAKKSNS

yYkt6ΔC [2] = target: T2, yYkt6ΔC (Saccharomyces cerevisiae, UniProt P36015); conditions: 50 mM Tris pH 8.0, 100 mM NaCl, 1 mM EDTA, 1 mM β-mercaptoethanol, 25 °C
T2 construct: gene YKT6; residues 1-195, C-terminal CCIIM motif removed; His6 tag; pET-M3C; E. coli BL21(DE3); not lipidated
T2 sequence (P36015 1-195): T1 sequence (P36015 1-195 T46L/Q57A/L169A) with L46T, A57Q, A169L

rYkt6ΔC [3] = target: T3, rYkt6ΔC (Rattus norvegicus, UniProt Q5EGY4)
T3 construct: gene Ykt6; residues 1-193, C-terminal CCAIM motif removed; His6 tag; pET-M3C; E. coli BL21(DE3); not lipidated
T3 sequence (Q5EGY4 1-193): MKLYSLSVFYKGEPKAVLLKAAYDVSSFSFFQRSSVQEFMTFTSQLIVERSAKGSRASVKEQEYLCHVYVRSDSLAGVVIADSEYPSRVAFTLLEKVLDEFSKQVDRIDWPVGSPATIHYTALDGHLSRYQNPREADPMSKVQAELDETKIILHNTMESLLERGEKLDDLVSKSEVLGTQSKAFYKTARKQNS

yYkt6ΔC [4] = target: T4, yYkt6ΔC (Saccharomyces cerevisiae, UniProt P36015, Q57A/T46L)
T4 construct: gene YKT6; residues 1-195, C-terminal CCIIM motif removed; His6 tag; pET-M3C; E. coli BL21(DE3); not lipidated
T4 sequence (P36015 1-195 T46L/Q57A): T1 sequence (P36015 1-195 T46L/Q57A/L169A) with A169L

yYkt6ΔC [5] = target: T5, yYkt6ΔC (Saccharomyces cerevisiae, UniProt P36015, S176D); conditions: 50 mM Tris pH 8.0, 100 mM NaCl, 1 mM EDTA, 1 mM β-mercaptoethanol, 25 °C
T5 construct: gene YKT6; residues 1-195, C-terminal CCIIM motif removed; His6 tag; pET-M3C; E. coli BL21(DE3); not lipidated
T5 sequence (P36015 1-195 S176D): T1 sequence (P36015 1-195 T46L/Q57A/L169A) with L46T, A57Q, A169L, S176D

yYkt6ΔC [6] = target: T6, yYkt6ΔC (Saccharomyces cerevisiae, UniProt P36015, T46L/Q57A/L172A); conditions: 50 mM Tris pH 8.0, 100 mM NaCl, 1 mM EDTA, 1 mM β-mercaptoethanol, 25 °C
T6 construct: gene YKT6; residues 1-195, C-terminal CCIIM motif removed; His6 tag; pET-M3C; E. coli BL21(DE3); not lipidated
T6 sequence (P36015 1-195 T46L/Q57A/L172A): T1 sequence (P36015 1-195 T46L/Q57A/L169A) with A169L, L172A

rYkt6ΔC [7] = target: T7, rYkt6ΔC (Rattus norvegicus, UniProt Q5EGY4, S174D); conditions: 50 mM Tris pH 8.0, 100 mM NaCl, 1 mM EDTA, 1 mM β-mercaptoethanol, 25 °C
T7 construct: gene Ykt6; residues 1-193, C-terminal CCAIM motif removed; His6 tag; pET-M3C; E. coli BL21(DE3); not lipidated
T7 sequence (Q5EGY4 1-193 S174D): T3 sequence (Q5EGY4 1-193) with S174D

With `CCCCCCCCCCCCOP(=O)([O-])OCC[N+](C)(C)C` [DPC, dodecylphosphocholine] the no binding (yYkt6ΔC [1]) was “ITC measurements showed that these mutations disrupt the binding with DPC”, the no binding (yYkt6ΔC [2]) was “It turns out that DPC could not bind to yYkt6ΔC” and the Kd (rYkt6ΔC [3]) was 38.5 µM. The Kd (yYkt6ΔC [4]) was 33.3 µM, the no binding (yYkt6ΔC [5]) was “the phospho-mutant yYkt6ΔC-S176D could not bind DPC either” and the no binding (yYkt6ΔC [6]) was “ITC measurements showed that these mutations disrupt the binding with DPC”. The no binding (rYkt6ΔC [7]) was “ITC experiments showed that DPC could not bind to rYkt6ΔC-S174D mutant”.
